Like-named read-outs stand apart in the source and are kept apart here.
What was measured:
SMARCA4 = SMARCA4 (Homo sapiens, UniProt P51532); test: HiBiT assay for protein degradation, Hela SMARCA4-HiBiT cells (A series); format: cell-based; design: fuse HiBiT to the carboxy terminus of SMARCA2 (Promega CS302365) or SMARCA4 (Promega CS3023225); host or cells: HeLa (CRISPR/Cas9 HiBiT knock-in); conditions: Hela SMARCA4-HiBiT cells, 24 hours treatment; for DC50: read-out: SMARC A4 Hela HiBit DC50
Summary of the method: (§1)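 HeLa cells engineered by CRISPR/Cas9 to carry a HiBiT tag fused to the C-terminus of SMARCA4 (Promega CS3023225) were grown in DMEM supplemented with FBS and penicillin-streptomycin. After compound exposure, remaining SMARCA4 protein was quantified using the Nano-Glo® HiBiT Lytic Detection Assay (Promega N3050), and curves were fitted in GraphPad Prism.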

SMARCA2 = SMARCA2 (Homo sapiens, UniProt P51531); test: HiBiT assay for protein degradation, Hela SMARCA2-HiBiT cells (A series); format: cell-based; design: Hela cells were genetically modified via CRISPR/Cas9 to fuse HiBiT to the carboxy terminus of SMARCA2; host or cells: HeLa (CRISPR/Cas9 HiBiT knock-in); conditions: Hela SMARCA2-HiBiT cells, 24 hours treatment; for DC50: read-out: SMARC A2 Hela HiBit DC50; for Dmax: read-out: SMARC A2 Hela HiBit Dmax (%);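 as to SMARC A2 Hela HiBit Dmax (%): 24 h compound treatment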
Summary of the method: as §1, with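 “SMARCA2” for “SMARCA4”, “CS302365)” for “CS3023225)”, “treatment,” for “compound exposure,”, “with” for “using”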

[1] = read-out: SMARC A4 Hela HiBit Dmax(%)
[2] = read-out: SMARC A4 Hela HiBit Dmax

Chain of SMARCA4 (P51532 whole entry, the tested form may be a part): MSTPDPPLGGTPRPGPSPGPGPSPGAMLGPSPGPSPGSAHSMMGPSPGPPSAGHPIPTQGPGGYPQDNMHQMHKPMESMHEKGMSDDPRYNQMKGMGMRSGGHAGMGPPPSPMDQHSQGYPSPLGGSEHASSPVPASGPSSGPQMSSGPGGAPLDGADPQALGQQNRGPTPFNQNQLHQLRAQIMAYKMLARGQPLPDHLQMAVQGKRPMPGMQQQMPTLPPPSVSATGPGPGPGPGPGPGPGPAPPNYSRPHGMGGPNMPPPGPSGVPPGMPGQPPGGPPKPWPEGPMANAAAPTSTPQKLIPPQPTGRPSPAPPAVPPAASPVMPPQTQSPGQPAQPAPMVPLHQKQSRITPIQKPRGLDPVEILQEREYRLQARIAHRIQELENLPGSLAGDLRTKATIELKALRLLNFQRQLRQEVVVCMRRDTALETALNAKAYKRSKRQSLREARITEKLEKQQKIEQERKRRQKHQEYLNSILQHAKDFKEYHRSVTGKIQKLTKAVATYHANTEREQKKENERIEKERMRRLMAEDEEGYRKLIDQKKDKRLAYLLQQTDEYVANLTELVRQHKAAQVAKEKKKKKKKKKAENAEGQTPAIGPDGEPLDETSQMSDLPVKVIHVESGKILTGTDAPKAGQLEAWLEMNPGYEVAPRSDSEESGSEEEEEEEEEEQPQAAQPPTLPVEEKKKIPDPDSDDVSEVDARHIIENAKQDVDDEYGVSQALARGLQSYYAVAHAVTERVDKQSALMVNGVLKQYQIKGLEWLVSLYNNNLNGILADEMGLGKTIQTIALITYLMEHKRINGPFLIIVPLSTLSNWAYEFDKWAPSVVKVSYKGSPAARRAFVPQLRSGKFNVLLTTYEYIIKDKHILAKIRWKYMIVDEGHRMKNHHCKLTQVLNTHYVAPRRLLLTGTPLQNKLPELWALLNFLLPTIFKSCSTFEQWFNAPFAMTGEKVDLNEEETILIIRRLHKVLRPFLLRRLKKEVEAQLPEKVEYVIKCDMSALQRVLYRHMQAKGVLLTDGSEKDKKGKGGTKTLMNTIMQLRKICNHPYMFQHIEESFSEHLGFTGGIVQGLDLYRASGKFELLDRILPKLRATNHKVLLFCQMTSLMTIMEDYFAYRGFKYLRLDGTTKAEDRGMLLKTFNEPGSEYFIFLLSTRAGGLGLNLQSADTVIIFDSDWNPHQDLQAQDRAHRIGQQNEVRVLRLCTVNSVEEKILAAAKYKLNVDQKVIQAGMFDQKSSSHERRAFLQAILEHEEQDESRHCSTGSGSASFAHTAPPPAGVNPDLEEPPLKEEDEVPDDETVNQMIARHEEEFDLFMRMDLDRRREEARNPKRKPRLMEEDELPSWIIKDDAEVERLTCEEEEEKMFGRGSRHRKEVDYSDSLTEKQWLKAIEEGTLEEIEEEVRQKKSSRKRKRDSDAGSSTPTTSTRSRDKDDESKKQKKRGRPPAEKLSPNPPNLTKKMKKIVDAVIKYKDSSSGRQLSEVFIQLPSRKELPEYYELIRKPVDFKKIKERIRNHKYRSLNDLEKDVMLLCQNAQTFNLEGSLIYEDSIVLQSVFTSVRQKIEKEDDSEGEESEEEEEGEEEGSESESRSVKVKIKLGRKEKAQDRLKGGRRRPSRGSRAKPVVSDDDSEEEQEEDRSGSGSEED
Chain of SMARCA2 (P51531 whole entry): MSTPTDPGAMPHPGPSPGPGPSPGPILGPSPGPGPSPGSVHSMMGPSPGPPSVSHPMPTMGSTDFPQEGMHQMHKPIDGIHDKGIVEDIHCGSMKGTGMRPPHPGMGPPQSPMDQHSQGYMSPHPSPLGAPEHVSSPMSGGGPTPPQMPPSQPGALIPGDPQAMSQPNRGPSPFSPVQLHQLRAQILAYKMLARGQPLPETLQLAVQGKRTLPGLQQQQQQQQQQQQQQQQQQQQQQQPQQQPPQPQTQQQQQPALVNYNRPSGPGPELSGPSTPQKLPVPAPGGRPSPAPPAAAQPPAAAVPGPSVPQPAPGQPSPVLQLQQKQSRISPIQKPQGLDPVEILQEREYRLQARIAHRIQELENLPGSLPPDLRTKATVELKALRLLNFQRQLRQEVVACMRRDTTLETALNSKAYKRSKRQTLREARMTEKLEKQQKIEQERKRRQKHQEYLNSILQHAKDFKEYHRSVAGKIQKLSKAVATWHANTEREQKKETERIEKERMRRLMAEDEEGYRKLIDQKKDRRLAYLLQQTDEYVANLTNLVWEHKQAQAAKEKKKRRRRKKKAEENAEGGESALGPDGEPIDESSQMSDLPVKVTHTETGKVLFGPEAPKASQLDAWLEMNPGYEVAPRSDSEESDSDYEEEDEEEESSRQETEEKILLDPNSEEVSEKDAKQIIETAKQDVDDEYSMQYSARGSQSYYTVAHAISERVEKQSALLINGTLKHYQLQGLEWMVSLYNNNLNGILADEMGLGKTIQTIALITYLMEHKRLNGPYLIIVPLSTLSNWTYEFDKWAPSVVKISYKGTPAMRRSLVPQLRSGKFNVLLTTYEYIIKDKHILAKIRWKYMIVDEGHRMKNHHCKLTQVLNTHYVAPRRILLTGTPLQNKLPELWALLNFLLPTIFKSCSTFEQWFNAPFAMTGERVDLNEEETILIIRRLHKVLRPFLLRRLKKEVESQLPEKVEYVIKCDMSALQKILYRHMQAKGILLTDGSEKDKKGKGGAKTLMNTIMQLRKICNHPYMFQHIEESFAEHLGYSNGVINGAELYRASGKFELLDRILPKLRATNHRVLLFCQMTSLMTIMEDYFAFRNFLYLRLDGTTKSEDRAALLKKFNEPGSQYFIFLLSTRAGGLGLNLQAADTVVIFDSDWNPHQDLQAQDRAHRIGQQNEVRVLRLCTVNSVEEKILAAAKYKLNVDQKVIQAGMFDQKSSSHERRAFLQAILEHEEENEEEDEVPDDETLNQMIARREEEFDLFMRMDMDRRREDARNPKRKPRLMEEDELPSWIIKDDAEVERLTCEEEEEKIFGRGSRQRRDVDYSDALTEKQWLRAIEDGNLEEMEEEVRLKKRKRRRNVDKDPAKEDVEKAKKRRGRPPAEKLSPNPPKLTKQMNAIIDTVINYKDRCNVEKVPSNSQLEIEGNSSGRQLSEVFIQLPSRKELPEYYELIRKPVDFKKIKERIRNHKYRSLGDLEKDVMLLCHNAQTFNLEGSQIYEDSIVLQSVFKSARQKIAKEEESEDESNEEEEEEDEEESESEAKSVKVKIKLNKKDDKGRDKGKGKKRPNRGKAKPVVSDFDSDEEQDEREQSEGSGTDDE

Row | Compound | DC50 (SMARCA4) [µM] | Dmax (SMARCA4; [1]) [%] | DC50 (SMARCA2) [µM] | Dmax (SMARCA2) [%] | SMARC A4 Hela HiBit DC50(nM) (SMARCA4) | Dmax (SMARCA4; [2]) [%]
1 | Cc1ncsc1-c1ccc([C@H](Cn2cc([C@H]3CC[C@H](CN4CCC(c5ccc6c(c5)C5(CCCCC5)c5nc(=O)c7c(Br)cccc7n5-6)CC4)CC3)nn2)NC(=O)[C@@H]2C[C@@H](O)CN2C(=O)[C@@H](NC(=O)C2(F)CC2)C(C)(C)C)cc1 [Compound A33, (2S,4R)—N—((R)-2-(4-((1r,4R)-4-((4-(4′-bromo-5′-010-5′H-spiro[cyclohexane-1,7′-indolo[1,2-a]quinazolin]-9′-yl)piperidin-1-yl)methyl)cyclohexyl)-1H-1,2,3-triazol-1-yl)-1-(4-(4-methylthiazol-5-yl)phenyl)ethyl)-1-((S)-2-(1-fluorocyclopropane-1-carboxamido)-3,3-dimethylbutanoyl)-4-hydroxypyrrolidine-2-carboxamide] | 0.1 to 0.5 | 70 to 90 | < 0.1 | > 90 |  | 
2 | Cc1ncsc1-c1ccc([C@H](C)NC(=O)[C@@H]2C[C@@H](O)CN2C(=O)[C@H](C2CCN(C(=O)[C@@H]3COCCO3)CC2)n2cc([C@H]3CC[C@H](CN4CCC(c5ccc6c(c5)-n5c(nc(=O)c7c(Cl)cccc75)C65CCCCC5)CC4)CC3)nn2)cc1 [Compound A113, (2S,4R)-1-((S)-2-(1-((S)-1,4-dioxane-2-carbonyl)piperidin-4-yl)-2-(4-((1r,4S)-4-((4-(4′-chloro-5′-oxo-5′H-spiro[cyclohexane-1,7′-indolo[1,2-a]quinazolin]-10′-yl)piperidin-1-yl)methyl)cyclohexyl)-1H-1,2,3-triazol-1-yl)acetyl)-4-hydroxy-N—((S)-1-(4-(4-methylthiazol-5-yl)phenyl)ethyl)pyrrolidine-2-carboxamide] |  |  | < 0.01 | > 90 | No fit | 70 to 90
3 | Cc1ncsc1-c1ccc([C@H](CN2CC(C)(F)C2)NC(=O)[C@@H]2C[C@@H](O)CN2C(=O)[C@@H](n2cc([C@H]3CC[C@H](CN4CCC(c5ccc6c(c5)-n5c(nc(=O)c7c(Cl)cccc75)C65CCCCC5)CC4)CC3)nn2)C(C)(C)C)cc1 [Compound A74, (2S,4R)-1-((S)-2-(4-((1r,4S)-4-((4-(4′-chloro-5′-oxo-5′H-spiro[cyclohexane-1,7′-indolo[1,2-a]quinazolin]-10′-yl)piperidin-1-yl)methyl)cyclohexyl)-1H-1,2,3-triazol-1-yl)-3,3-dimethylbutanoyl)-N—((R)-2-(3-fluoro-3-methylazetidin-1-yl)-1-(4-(4-methylthiazol-5-yl)phenyl)ethyl)-4-hydroxypyrrolidine-2-carboxamide] | > 1 | 50 to 69 | < 0.1 | > 90 |  | 
4 | Cc1ncsc1-c1ccc([C@@H](NC(=O)[C@@H]2C[C@@H](O)CN2C(=O)[C@@H](n2cc(C3CC3)nn2)C(C)(C)C)C(=O)N2CCC(CN3CCC(c4ccc5c(c4)-n4c(nc(=O)c6c(Br)cccc64)C54CCCCC4)CC3)CC2)cc1 [Compound A136, (2S,4R)—N—((R)-2-(4-((4-(4′-bromo-5′-oxo-5′H-spiro[cyclohexane-1,7′-indolo[1,2-a]quinazolin]-10′-yl)piperidin-1-yl)methyl)piperidin-1-yl)-1-(4-(4-methylthiazol-5-yl)phenyl)-2-oxoethyl)-1-((S)-2-(4-cyclopropyl-1H-1,2,3-triazol-1-yl)-3,3-dimethylbutanoyl)-4-hydroxypyrrolidine-2-carboxamide] | < 0.01 |  | < 0.01 | > 90 |  | > 90
5 | Cc1ncsc1-c1ccc([C@H](CCCCCN2CCC(c3ccc4c(c3)C3(CCCCC3)c3nc(=O)c5c(Br)cccc5n3-4)CC2)NC(=O)[C@H]2C[C@H](O)CN2C(=O)[C@@H](NC(=O)C2(CN3CCOCC3)CC2)C(C)(C)C)cc1 [Compound A38, (2R,4S)—N—((S)-6-(4-(4′-bromo-5′-oxo-5′H-spiro[cyclohexane-1,7′-indolo[1,2-a]quinazolin]-9′-yl)piperidin-1-yl)-1-(4-(4-methylthiazol-5-yl)phenyl)hexyl)-1-((S)-3,3-dimethyl-2-(1-(morpholinomethyl)cyclopropane-1-carboxamido)butanoyl)-4-hydroxypyrrolidine-2-carboxamide] | 0.1 to 0.5 | 70 to 90 | < 0.1 | > 90 |  | 
6 | COCCOCCOCCOCCOC[C@H](NC(=O)[C@@H]1C[C@@H](O)CN1C(=O)[C@@H](n1cc([C@H]2CC[C@H](CN3CCC(c4ccc5c(c4)-n4c(nc(=O)c6c(Cl)cccc64)C54CCCCC4)CC3)CC2)nn1)C(C)(C)C)c1ccc(-c2scnc2C)cc1 [Compound A149, (2S,4R)-1-((S)-2-(4-((1r,4S)-4-((4-(4′-chloro-5′-oxo-5′H-spiro[cyclohexane-1,7′-indolo[1,2-a]quinazolin]-10′-yl)piperidin-1-yl)methyl)cyclohexyl)-1H-1,2,3-triazol-1-yl)-3,3-dimethylbutanoyl)-4-hydroxy-N—((R)-16-(4-(4-methylthiazol-5-yl)phenyl)-2,5,8,11,14-pentaoxahexadecan-16-yl)pyrrolidine-2-carboxamide] | > 1 |  | < 0.01 | > 90 |  | 50 to 69
7 | Cc1ncsc1-c1ccc([C@H](CN2CCC(C(=O)O)CC2)NC(=O)[C@@H]2C[C@@H](O)CN2C(=O)[C@@H](n2cc([C@H]3CC[C@H](CN4CCC(c5ccc6c(c5)-n5c(nc(=O)c7c(Cl)cccc75)C65CCCCC5)CC4)CC3)nn2)C(C)(C)C)cc1 [Compound A156, 1-((R)-2-((2S,4R)-1-((S)-2-(4-((1r,4S)-4-((4-(4′-chloro-5′-oxo-5′H-spiro[cyclohexane-1,7′-indolo[1,2-a]quinazolin]-10′-yl)piperidin-1-yl)methyl)cyclohexyl)-1H-1,2,3-triazol-1-yl)-3,3-dimethylbutanoyl)-4-hydroxypyrrolidine-2-carboxamido)-2-(4-(4-methylthiazol-5-yl)phenyl)ethyl)piperidine-4-carboxylic acid] | > 1 |  | 0.1 to 1 | 70 to 90 |  | < 50
8 | Cc1ncsc1-c1ccc([C@H](CC(=O)N2CCC(c3ccc4c(c3)-n3c(nc(=O)c5c(Cl)cccc53)C43CCCCC3)CC2)NC(=O)[C@@H]2C[C@@H](O)CN2C(=O)[C@@H](n2cc(C3CC3)nn2)C(C)(C)C)cc1 [Compound A140, (2S,4R)—N—((S)-3-(4-(4′-chloro-5′-oxo-5′H-spiro[cyclohexane-1,7′-indolo[1,2-a]quinazolin]-10′-yl)piperidin-1-yl)-1-(4-(4-methylthiazol-5-yl)phenyl)-3-oxopropyl)-1-((S)-2-(4-cyclopropyl-1H-1,2,3-triazol-1-yl)-3,3-dimethylbutanoyl)-4-hydroxypyrrolidine-2-carboxamide] | > 1 |  | 0.01 to 0.1 | 70 to 90 |  | < 50
9 | Cc1ncsc1-c1ccc([C@H](CNC(=O)[C@H]2CC[C@H](CN3CCC(c4ccc5c(c4)C4(CCCCC4)c4nc(=O)c6c(Br)cccc6n4-5)CC3)CC2)NC(=O)[C@@H]2C[C@@H](O)CN2C(=O)[C@@H](n2cc(C3CC3)nn2)C(C)(C)C)cc1 [Compound A117, (2S,4R)—N—((R)-2-((1r,4R)-4-((4-(4′-bromo-5′-oxo-5′H-spiro[cyclohexane-1,7′-indolo[1,2-a]quinazolin]-9′-yl)piperidin-1-yl)methyl)cyclohexane-1-carboxamido)-1-(4-(4-methylthiazol-5-yl)phenyl)ethyl)-1-((S)-2-(4-cyclopropyl-1H-1,2,3-triazol-1-yl)-3,3-dimethylbutanoyl)-4-hydroxypyrrolidine-2-carboxamide] | > 1 |  | > 1 | < 50 |  | < 50
10 | Cc1ncsc1-c1ccc([C@H](CN2CCOCC2)NC(=O)[C@@H]2C[C@@H](O)CN2C(=O)[C@H](C2CCOCC2)n2cc([C@H]3CC[C@H](CN4CCC(c5ccc6c(c5)-n5c(nc(=O)c7c(Br)cccc75)C65CCCCC5)CC4)CC3)nn2)cc1 [Compound A101, (2S,4R)-1-((S)-2-(4-((1r,4S)-4-((4-(4′-bromo-5′-oxo-5′H-spiro[cyclohexane-1,7′-indolo[1,2-a]quinazolin]-10′-yl)piperidin-1-yl)methyl)cyclohexyl)-1H-1,2,3-triazol-1-yl)-2-(tetrahydro-2H-pyran-4-yl)acetyl)-4-hydroxy-N-((R)-1-(4-(4-methylthiazol-5-yl)phenyl)-2-morpholinoethyl)pyrrolidine-2-carboxamide] | 0.01 to 0.1 |  | < 0.01 | > 90 |  | 70 to 90
